Source: article PMC5487681, “Identification of Antifungal H^+-ATPase Inhibitors with Effect on Plasma Membrane Potential” (Antimicrobial Agents and Chemotherapy, 2017)
Where two headings read alike, the source gives them in different places. Residues, ends and D or L forms follow the SMILES beside them.

Legend:
[1] = Compound precipitation in the fungal growth medium; assay type: physicochemical; conditions: fungal growth medium (RPMI), footnotes of Table 1
Method: (§1) The following fungal isolates were used: Saccharomyces cerevisiae ATCC 9763, Candida albicans SC5314, Candida parapsilosis ATCC 22019, Candida tropicalis Ct016, Candida glabrata ATCC 90030, Aspergillus fumigatus ATCC 13073, and Aspergillus flavus ATCC MYA-1005. Frozen stocks of yeast isolates in glycerol (final concentration, 20%) were prepared by growing the cells to log phase in YPD medium at 30°C and 150 rpm. Frozen stocks of mold spores were prepared by harvesting spores from 7-day-old potato glucose agar plates in phosphate-buffered saline, 0.1% Tween 80 and aliquoting these spores in the presence of glycerol (final concentration, 20%). The cells were stored at −80°C. The cells or spores were thawed and diluted to a final concentration of 0.5 × 10^5 to 2.5 × 10^5 CFU/ml in sterile Milli-Q H2O. […] The plate was incubated for 20 to 24 h at 34°C (72 h for molds), and the OD490 was measured on a Victor X5 (PerkinElmer) plate reader. Mold growth assay plates were also visually inspected. The MIC was defined as the lowest concentration inhibiting the visual growth of the microorganism. Standard errors were typically below 5%.

Candida spp. = experiment: Fungal growth inhibition, Candida spp. (text summary of Table 1); assay type: cell-based; conditions: 38 μM highest concentration tested for compounds 4 and 8, read-out: MIC for several of the Candida spp. tested
Method: as §1

C. albicans Pma1 = biological target: T1, C. albicans Pma1 (Candida albicans, UniProt P28877); experiment: ATP hydrolysis assay, C. albicans Pma1; assay type: biochemical
T1 construct: endogenous in cells
Method: A 100-ml overnight culture in YPD medium [10 g/liter yeast extract (BD, Sparks, MD), 20 g/liter Bacto peptone (BD), 20 g/liter D-(+)-glucose] was transferred to 1 liter YPD medium and grown at room temperature and 150 rpm for 18 h for wild-type S. cerevisiae (ATCC 9763) and 7 h for C. albicans. The cells were harvested and washed in Milli-Q H2O by centrifugation at 3,360 × g. The cells were glucose activated by the addition of 10% D-(+)-glucose for 10 min while shaking. The cells were then centrifuged at 3,360 × g for 3 min and frozen. Cells (60 to 80 g, wet weight) were then disrupted by bead beating (BioSpec, Bartlesville, OK) and processed as described in reference to prepare the plasma membranes. […] All batches were validated by ATPase hydrolysis activity, pH optimum, and orthovanadate sensitivity.
The protein activity levels were determined by measuring the amount of free phosphate produced from the ATP hydrolysis reaction. The assay was performed as described in reference. Each well contained ATPase enzyme, 2 μl of inhibitor (usually in the range of 333 to 0.01 μM) dissolved in dimethyl sulfoxide (DMSO) (Duchefa Biochemie, Haarlem, The Netherlands), and an assay buffer dependent on the enzyme for a final volume of 60 μl. Possible compound precipitation in the assay buffer was monitored using a Nephelostar plate reader measuring turbidity, and the information was taken into account in the IC50 determination. Pma1 assay buffer consisted of 20 mM 3-(N-morpholino)propanesulfonic acid (MOPS)–NaOH, pH 6.5 or 7.0, 8 mM MgSO4, 50 mM KNO3 (a vacuolar ATPase inhibitor), 25 mM sodium azide (a mitochondrial ATPase inhibitor), and 250 μM sodium molybdate (an acid phosphatase inhibitor). SERCA buffer consisted of 9 mM MOPS-NaOH, pH 7, 2.7 mM MgCl2, 90 μM CaCl2, and 72 mM KCl. Na^+,K^+-ATPase buffer consisted of 30 mM MOPS-NaOH, pH 7, 40 mM NaCl, 4 mM MgCl2, and 20 mM KCl. The concentration of protein was adjusted to obtain a signal of the optical density at 860 nm (OD860) of between 0.5 and 1.0 in the untreated samples (for all Pma1 batches, ∼1 to 2 μg/well; for SERCA and Na^+,K^+-ATPase, ∼0.1 to 0.2 μg/well). BM2 ([…]-NH2, D-form amino acids) was custom synthesized by Peptide 2.0 (Chantilly, VA).

C. albicans = experiment: Medium acidification assay, C. albicans; assay type: cell-based, Candida albicans
Method: Frozen stocks of C. albicans and S. cerevisiae were transferred to YPD agar plates and incubated overnight at 34°C. On the next day, the cells were suspended and washed twice in 50 mM KCl, pH 6.7, after pelleting of the cells by centrifugation at 3,000 × g for 5 min. The cells were then starved overnight at 4°C in the KCl solution. […] The pH drop was then monitored by determination of the fluorescent signal with excitation at 485 nm and emission at 538 nm on a Fluoroskan Ascent plate reader (Thermo Fisher Scientific) for 12 min. The rate of medium acidification was calculated on the basis of the slope of the drop in fluorescence.

C. albicans cells = experiment: Intracellular ATP (iATP), C. albicans; assay type: cell-based, Candida albicans; conditions: for EC50: Candida albicans, 0.5 h, 30 min, dose response (Fig. 5C), read-out: EC50 of the increase in iATP levels, C. albicans; for Maximum iATP level (per well), C. albicans: highest concentrations of inhibitors tested (Fig. 5C)
Method: (§2) S. cerevisiae and C. albicans cells were grown and washed as described above for the membrane potential and integrity assay and resuspended in SG medium (0.7% yeast nitrogen base without amino acids [BD], 50 mM succinic acid adjusted to pH 7 with Trizma base) to OD600 of 0.2 and 0.1, respectively. One hundred microliters of an S. cerevisiae or C. albicans cell suspension and 1 μl compound in DMSO were incubated for 30 min. Twenty-five microliters of the suspension was then transferred to a black 96-well plate containing 25 μl BacTiter-Glo reagent (Promega, Madison, WI) and incubated for 15 min in the dark. The luminescence was read on SpectraMax X5 (Molecular Devices, Sunnyvale, CA) plate reader with a 10 s of shaking and a 0.5 s integration time. Standard curves at 10, 100, and 1,000 nM ATP were performed with every experiment.

S. cerevisiae cells = experiment: Intracellular ATP (iATP), S. cerevisiae; assay type: cell-based, Saccharomyces cerevisiae; conditions: for Effects on iATP levels, in words: S. cerevisiae and C. albicans (Fig. 5A, B), compared to compounds 14, 19 and BM2
Method: as §2

Ca^2+-ATPase (SERCA1a) = Ca^2+-ATPase (SERCA1a) (Oryctolagus cuniculus, UniProt P04191); experiment: ATP hydrolysis assay, SERCA; assay type: biochemical, rabbit; conditions: Table 1
[2] = Table 2, pH 7, n = 2, read-out: IC50 for ATP hydrolysis, C. albicans Pma1
[3] = read-out: IC50 for the Pma1 enzyme from C. albicans
[4] = Candida albicans, 0.2 h, 50% inhibition of medium acidification, 12 min, n = 2 to 3, read-out: IC50 for acidification, C. albicans
[5] = ATP hydrolysis at pH 7.4 (compounds marked b)

T1 sequence (P28877 whole entry): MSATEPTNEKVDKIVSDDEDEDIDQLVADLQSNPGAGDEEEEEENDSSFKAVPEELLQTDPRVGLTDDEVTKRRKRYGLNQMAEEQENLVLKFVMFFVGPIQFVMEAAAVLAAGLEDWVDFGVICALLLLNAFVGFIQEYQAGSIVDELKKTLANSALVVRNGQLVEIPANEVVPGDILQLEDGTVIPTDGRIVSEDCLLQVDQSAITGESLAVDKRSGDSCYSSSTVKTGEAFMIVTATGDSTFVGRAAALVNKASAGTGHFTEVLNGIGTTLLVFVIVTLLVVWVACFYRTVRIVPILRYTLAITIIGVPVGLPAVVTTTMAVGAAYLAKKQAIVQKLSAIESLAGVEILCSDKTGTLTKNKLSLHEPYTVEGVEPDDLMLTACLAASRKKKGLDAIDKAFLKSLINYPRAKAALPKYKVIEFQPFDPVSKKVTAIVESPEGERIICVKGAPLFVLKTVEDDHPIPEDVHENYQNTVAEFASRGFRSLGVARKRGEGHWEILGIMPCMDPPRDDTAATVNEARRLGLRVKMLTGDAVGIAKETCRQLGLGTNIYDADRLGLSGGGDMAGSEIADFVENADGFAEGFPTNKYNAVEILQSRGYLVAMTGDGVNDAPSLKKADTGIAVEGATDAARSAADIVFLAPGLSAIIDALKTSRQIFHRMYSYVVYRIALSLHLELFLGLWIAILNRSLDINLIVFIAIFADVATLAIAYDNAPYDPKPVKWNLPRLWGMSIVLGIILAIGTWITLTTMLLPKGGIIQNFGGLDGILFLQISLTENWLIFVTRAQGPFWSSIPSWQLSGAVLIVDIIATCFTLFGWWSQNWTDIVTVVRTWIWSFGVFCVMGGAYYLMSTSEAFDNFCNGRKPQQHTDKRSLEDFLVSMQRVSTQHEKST
Ca^2+-ATPase (SERCA1a), sequence (P04191 1-994 isoform P04191-2): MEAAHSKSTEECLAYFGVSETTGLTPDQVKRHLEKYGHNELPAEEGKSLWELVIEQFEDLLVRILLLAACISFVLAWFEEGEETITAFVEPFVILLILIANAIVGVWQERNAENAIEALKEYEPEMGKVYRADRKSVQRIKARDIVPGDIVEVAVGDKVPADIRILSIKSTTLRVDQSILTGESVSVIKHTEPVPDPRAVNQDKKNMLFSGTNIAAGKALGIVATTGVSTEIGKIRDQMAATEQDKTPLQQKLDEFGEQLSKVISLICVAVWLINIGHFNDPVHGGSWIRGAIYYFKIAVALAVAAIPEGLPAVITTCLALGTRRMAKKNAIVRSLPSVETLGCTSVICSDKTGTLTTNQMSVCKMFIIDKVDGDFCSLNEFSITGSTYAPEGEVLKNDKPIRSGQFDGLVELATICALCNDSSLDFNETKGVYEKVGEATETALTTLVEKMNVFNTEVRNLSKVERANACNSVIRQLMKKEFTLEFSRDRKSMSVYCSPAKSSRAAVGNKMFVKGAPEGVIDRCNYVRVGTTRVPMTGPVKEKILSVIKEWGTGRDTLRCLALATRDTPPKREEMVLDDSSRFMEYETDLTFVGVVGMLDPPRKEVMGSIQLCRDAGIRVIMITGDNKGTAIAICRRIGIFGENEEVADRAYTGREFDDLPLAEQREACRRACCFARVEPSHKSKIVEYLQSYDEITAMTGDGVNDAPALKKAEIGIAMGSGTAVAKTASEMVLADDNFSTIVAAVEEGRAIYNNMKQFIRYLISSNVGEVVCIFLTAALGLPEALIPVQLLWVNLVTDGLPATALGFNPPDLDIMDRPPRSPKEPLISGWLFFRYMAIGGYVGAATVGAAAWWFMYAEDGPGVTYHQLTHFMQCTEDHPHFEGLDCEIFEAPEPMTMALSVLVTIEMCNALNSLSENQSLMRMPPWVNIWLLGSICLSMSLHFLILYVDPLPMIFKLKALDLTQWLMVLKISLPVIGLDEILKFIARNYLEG

Row | SMILES | Compound precipitation observed in the growth medium at concentrations down to [1] | MIC (Candida spp.) [µM] | IC50 (C. albicans Pma1; [2]) [µM] | IC50 (C. albicans; [4]) [µM] | other results
1 | COc1ccc(-c2cc(C(=O)Nc3ccc4c(c3)OCCO4)c3ccccc3n2)c(OC)c1 [Compound 8] | d Compound precipitation was observed in the growth medium at concentrations down to 48 μM. | > 38 | – | – | –
2 | COc1cccc(Nc2nc(Cl)nc(Nc3cccc(OC)c3)n2)c1 [Compound 9] | d Compound precipitation was observed in the growth medium at concentrations down to 48 μM. | > 150 | – | – | –
3 | CCN(CC)CCCNc1nc(SC)nc2c1sc1nc(-c3ccccc3)c3c(c12)CCC3 [Compound 19] | – | – | 8.7 ± 0.5 | 2.3 ± 0.5 | IC50 (C. albicans Pma1; [3]): 9 µM; EC50 (C. albicans cells): 7 µM; Maximum iATP level (per well), C. albicans (C. albicans cells): about 500 nM
4 | CCc1nc2sc3c(NCCCN(C)C)ncnc3c2c2c1CCCC2 [Compound 17] | – | – | 151 ± 6.2 | 19.1 ± 1.7 | Effects on iATP levels, in words (S. cerevisiae cells): minimal effects
5 | CCOc1ccc2nc3cc(NC(=O)c4cccc(Br)c4)ccc3c(N)c2c1 [Compound 5] | f Compound precipitation was observed in the growth medium at concentrations down to 75 μM. | – | – | – | –
6 | Oc1cccc(Nc2nc(-c3ccc(Cl)c(Cl)c3)cs2)c1 [Compound 7] | d Compound precipitation was observed in the growth medium at concentrations down to 48 μM. | – | – | – | IC50 (Ca^2+-ATPase (SERCA1a); [5]): 3.8 ± 0.6 µM
7 | COc1ccc(-c2cc(C(=O)Nc3ccc(C(C)C)cc3)c3ccccc3n2)c(OC)c1 [Compound 3] | e Compound precipitation was observed in the growth medium at concentrations down to 150 μM. | > 150 | – | – | –
8 | CC1CCCCN1CC(O)Cn1c(-c2ccccc2)c(-c2ccccc2)c2ccc3ccccc3c21 (stereo not drawn) [Compound 4] | d Compound precipitation was observed in the growth medium at concentrations down to 48 μM. | > 38 | – | – | –
9 | CN(C)CCCNc1ncnc2c1sc1nc(N3CCCCC3)c3c(c12)CCCC3 [Compound 16] | – | – | 9.5 ± 1 | 3.4 ± 1.6 | –
10 | CCCCc1nc2sc3c(NCCCN(C)C)ncnc3c2c2c1CCCC2 [Compound 14] | – | – | 17 ± 0.9 | 6.6 ± 2.5 | IC50 (C. albicans Pma1; [3]): 17 µM; iATP levels in the presence of oligomycin, S. cerevisiae (S. cerevisiae cells; 30 min, oligomycin A at 40 μM): comparable to those for control cells; Increase in iATP levels compared to untreated control, S. cerevisiae (S. cerevisiae cells; 30 min of treatment, species of the BM2 value not given): 200%; Increase in iATP levels compared to untreated control, C. albicans (C. albicans cells; 30 min of treatment): 1,500%; EC50 (C. albicans cells): 13 µM; Maximum iATP level (per well), C. albicans (C. albicans cells): about 500 nM
11 | O=c1c2ccccc2[se]n1-c1ccccc1 [Ebselen, reference compound] | – | – | – | 9.4 ± 2.1 | IC50 (C. albicans Pma1; IC50 for ATP hydrolysis, C. albicans Pma1, Table 2, pH 7, n = 2): 0.51 ± 0.04 µM; IC50 (C. albicans; Candida albicans, read-out: IC50 for C. albicans, extracellular acidification): 11 µM
12 | O=C1/C(=C/c2ccc(-c3cc(Cl)ccc3Cl)o2)C=C(c2ccccc2)N1c1ccccc1O [Compound 1] | c Compound precipitation was observed in the growth medium at concentrations down to 15 μM. | > 150 | – | – | –
13 | CCCCOc1ccc(C2C(C#N)=C(N)Oc3cc(O)ccc32)cc1 (stereo not drawn) [Compound 11] | d Compound precipitation was observed in the growth medium at concentrations down to 48 μM. | > 150 | – | – | –
14 | N=C(N)NCCC[C@@H](N)C(=O)N[C@H](CCCNC(=N)N)C(=O)N[C@H](CCCNC(=N)N)C(=O)N[C@H](Cc1ccccc1)C(=O)N[C@H](Cc1c[nH]c2ccccc12)C(=O)N[C@H](Cc1c[nH]c2ccccc12)C(=O)N[C@H](Cc1ccccc1)C(=O)N[C@H](CCCNC(=N)N)C(=O)N[C@H](CCCNC(=N)N)C(=O)N[C@H](CCCNC(=N)N)C(N)=O [BM2, reference compound] (HELM PEPTIDE1{[dR].[dR].[dR].[dF].[dW].[dW].[dF].[dR].[dR].[dR].[am]}$$$$V2.0) | – | – | 0.9 ± 0.2 | – | IC50 (C. albicans Pma1; [3]): 0.9 µM
15 | Cc1c(-c2ccccc2)[o+]c2ccccc2c1C#Cc1ccccc1 [Compound 6] | d Compound precipitation was observed in the growth medium at concentrations down to 48 μM. | > 150 | – | – | IC50 (Ca^2+-ATPase (SERCA1a); [5]): 3.4 ± 0.6 µM
16 | [O]=[V]([O-])([O-])[O-] [Vanadate, reference compound] | – | – | 0.23 ± 0.05 | – | IC50 (C. albicans; 50% inhibition of medium acidification, 12 min, n = 2 to 3, read-out: IC50 for acidification, C. albicans): > 40 µM; Effects on iATP levels, in words (S. cerevisiae cells): minimal effects
17 | COc1ccc(Cn2c(SCc3cc(C)ccc3C)nc3cc(OC)c(OC)cc3c2=N)cc1 [Compound 12] | e Compound precipitation was observed in the growth medium at concentrations down to 150 μM. | > 150 | – | – | IC50 (Ca^2+-ATPase (SERCA1a); ATP hydrolysis at pH 7): > 105 µM
18 | CCCCc1nc2sc3c(NCCCN(C)C)nc(SC)nc3c2c2c1CCC2 [Compound 15] | – | – | 6.3 ± 0.5 | 1.6 | –
19 | CN(C)CCCNc1ncnc2c1sc1nc(-c3ccccc3)c3c(c12)CCC3 [Compound 18] | – | – | 22.9 ± 2 | 8.8 ± 0.4 | –
